The source of these data is US7148249B2, “Indolinones substituted by heterocycles, the preparation thereof and their use as medicaments” (Boehringer Ingelheim Pharma GmbH & Co. KG, priority 2002, dated 2006).

Counter-ions that a name gives are not always drawn.

Tested on in one data set: not given
Test: not given
Details: not given
A word on the melting point: it is the temperature, or range, at which the solid turns liquid. As for `CCNCc1ccc(N/C(=C2\C(=O)Nc3cc(F)ccc32)c2ccc3c(c2)ncn3C)cc1` (as salt: salt) [Example 11, 6-fluoro-3-(Z)-{1-[4-(ethylaminomethyl)-phenylamino]-1-(1-methylbenzimidazol-5-yl)-methylene}-2-indolinone], the melting point was 226 to 228 °C.

`CCC(=O)N(CCCN(C)C)c1ccc(N/C(=C2\C(=O)Nc3ccccc32)c2coc(N(Cc3ccccc3)Cc3ccccc3)n2)cc1` [Example 1.0, 3-(Z)-[1-{4-[N-propionyl-N-(3-dimethylamino-propyl)-amino]-phenylamino}-1-(2-dibenzylamino-4-oxazolyl)-methylene]-2-indolinone]: the melting point lay within 204 to 205 °C.

As to `CCNCc1ccc(N/C(=C2\C(=O)Nc3cc(Cl)ccc32)c2ccc3c(c2)OCO3)cc1` (as salt: salt) [Example 8.0, 6-chloro-3-(Z)-{1-[4-(ethylaminomethyl)-phenylamino]-1-(3,4-methylenedioxyphenyl)-methylene}-2-indolinone], the melting point is 248 to 250 °C.

Compound `CNC(=O)c1ccc2c(c1)NC(=O)/C2=C(\Nc1ccc(CN2CCN(C)CC2)cc1)c1ccc2c(c1)OCCO2` [Example 10.0, 6-methylaminocarbonyl-3-(Z)-{1-[4-(1-methylpiperazin-4-yl-methyl)-phenylamino]-1-(3,4-ethylenedioxyphenyl)-methylene}-2-indolinone] gave a melting point of 172 °C.

A further data set deals with Human umbilical endothelial cells (HUVEC). The experiment in a line: Inhibition of VEGF165-stimulated HUVEC proliferation (3H-thymidine incorporation). Format: cell-based. Conditions: HUVEC proliferation stimulated with 5 ng/ml VEGF165 and 10 μg/ml heparin; 76 h incubation + 16 h 3H-thymidine. The procedure:
Human umbilical endothelial cells (HUVEC) were cultivated in IMDM (Gibco BRL), supplemented with 10% foetal calf serum (FBS) (Sigma), 50 μM of β-mercaptoethanol (Fluka), standard antibiotics, 15 μg/ml of endothelial cell growth factor (ECGS, Collaborative Biomedical Products) and 100 μg/ml of heparin (Sigma) on gelatine-coated culture dishes (0.2% gelatine, Sigma) at 37° C., under 5% CO2 in a water-saturated atmosphere.
In order to investigate the inhibitory activity of the compounds according to the invention the cells were “starved” for 16 hours, i.e. kept in culture medium without growth factors (ECGS+heparin). The cells were detached from the culture dishes using trypsin/EDTA and washed once in serum-containing medium. Then they were seeded out in amounts of 2.5×10^3 cells per well.
The proliferation of the cells was stimulated with 5 ng/ml of VEGF165 (vascular endothelial growth factor; H. Weich, GBF Braunschweig) and 10 μg/ml of heparin. As a control, 6 wells in each dish were not stimulated.
The compounds according to the invention were dissolved in 100% dimethylsulphoxide and added to the cultures in various dilutions as triple measurements, the maximum dimethylsulphoxide concentration being 0.3%.
The cells were incubated for 76 hours at 37° C., then for a further 16 hours ^3H-thymidine (0.1 μCi/well, Amersham) was added in order to determine the DNA synthesis. Then the radioactively labelled cells were immobilised on filter mats and the radioactivity incorporated was measured in a β-counter. In order to determine the inhibitory activity of the compounds according to the invention the mean value of the non-stimulated cells was subtracted from the mean value of the factor-stimulated cells (in the presence or absence of the compounds according to the invention).
The relative cell proliferation was calculated as a percentage of the control (HUVEC without inhibitor) and the concentration of active substance which inhibits the proliferation of the cells by 50% (IC50) was determined.
One may read the IC50 as the point on the concentration scale where inhibition reaches its midpoint. In the case of `COc1cc(N/C(=C2\C(=O)Nc3cc(Cl)ccc32)c2ccc3c(c2)OCCO3)ccc1N(C)C(=O)CN(C)C` [(bb), 6-chloro-3-(Z)-{1-[4-(N-dimethylaminomethylcarbonyl-N-methyl-amino)-3-methoxy-phenylamino]-1-(1,2-ethylenedioxyphen-4-yl)-methylene}-2-indolinone], the IC50 was 33 nM.

Staying with this data set, now noted: Homo sapiens; HUVEC proliferation stimulated with 5 ng/ml VEGF165 and 10 μg/ml heparin; 76 h incubation + 16 h 3H-thymidine.
In the case of `CN1CCN(Cc2ccc(N/C(=C3\C(=O)Nc4cc(Cl)ccc43)c3ccc4c(c3)OCO4)cc2)CC1` [(q), 3-(Z)-{1-(4-[4-methylpiperazin-1-yl-methyl]-phenylamino)-1-(3,4-methylenedioxy-phenyl)-methylene}-6-chloro-2-indolinone], the IC50 came to 2 nM.

As for `CN(C)CC(=O)N(C)c1ccc(N/C(=C2\C(=O)Nc3ccccc32)c2ccoc2)cc1` [(an), 3-(Z)-{1-(4-[N-methyl-N-(dimethylaminomethylcarbonyl)-amino]-phenylamino)-1-(3-furyl)-methylene}-2-indolinone], the IC50 amounted to 58 nM.

On to `CCC(=O)N(CCCN(C)C)c1ccc(N/C(=C2\C(=O)Nc3cc(Cl)ccc32)c2ccc3c(c2)OCCO3)cc1` [(n), 3-(Z)-{1-(4-[N-propionyl-N-(3-dimethylaminopropyl)-amino]-phenylamino)-1-(3,4-ethylenedioxyphenyl)-methylene}-6-chloro-2-indolinone], for which the IC50 was 1 nM.

In the case of `CN1CCN(C(=O)Cc2ccc(N/C(=C3\C(=O)Nc4cc(F)ccc43)c3ccc4c(c3)OCCO4)cc2)CC1` [(aw), 3-(Z)-{1-(4-[(1-methyl-piperazin-4-yl)-carbonylmethyl]-phenylamino)-1-(3,4-ethylenedioxyphenyl)-methylene}-6-fluoro-2-indolinone], the IC50 amounted to 4 nM.

In the case of `COC(=O)c1ccc2c(c1)NC(=O)/C2=C(\Nc1ccc(N(CCN(C)C)S(C)(=O)=O)cc1)c1ccc2c(c1)OCCO2` [(r), 3-(Z)-{1-(4-[N-methanesulphonyl-N-(2-dimethylaminoethyl)-amino]-phenylamino)-1-(3,4-ethylenedioxyphenyl)-methylene}-6-methoxycarbonyl-2-indolinone], the IC50 was found to be 0.2 nM.

With `CC(=O)N(CCN(C)C)c1ccc(N/C(=C2\C(=O)Nc3cc(Cl)ccc32)c2ccc3c(c2)OCCO3)cc1` [(p), 3-(Z)-{1-(4-[N-acetyl-N-(2-dimethylaminoethyl)-amino]-phenylamino)-1-(3,4-ethylenedioxyphenyl)-methylene}-6-chloro-2-indolinone], the IC50 came to 2 nM.

`Cn1cnc2cc(/C(Nc3ccc(Cn4cncn4)cc3)=C3/C(=O)Nc4cc(F)ccc43)ccc21` [(e), 3-(Z)-{1-[4-(1,2,4-triazol-1-yl-methyl)-phenylamino]-1-(1-methyl-benzimidazol-5-yl)-methylene}-6-fluoro-2-indolinone]: the IC50 stood at 16 nM.

With `COC(=O)c1ccc2c(c1)NC(=O)/C2=C(\Nc1ccc(C(=O)N(C)CCN(C)C)cc1)c1ccc2c(c1)OCO2` [(af), 3-(Z)-{1-(4-[N-methyl-N-(2-dimethylaminoethyl)aminocarbonyl]-phenylamino)-1-(3,4-methylenedioxyphenyl)-methylene}-6-methoxycarbonyl-2-indolinone], the IC50 was 0.5 nM.

As for `COC(=O)c1ccc2c(c1)NC(=O)/C2=C(\Nc1ccc(C(=O)N(C)CCCN(C)C)cc1)c1ccc2c(c1)OCCO2` [(ae), 3-(Z)-{1-(4-[N-methyl-N-(3-dimethylaminopropyl)aminocarbonyl]-phenylamino)-1-(3,4-ethylenedioxyphenyl)-methylene}-6-methoxycarbonyl-2-indolinone], the IC50 is 0.5 nM.

As to `CCN(C)Cc1ccc(N/C(=C2\C(=O)Nc3cc(Cl)ccc32)c2ccc3c(c2)OCO3)cc1` [(c), 3-(Z)-{1-[4-(N-ethyl-N-methyl-aminomethyl)-phenylamino]-1-(3,4-methylenedioxy-phenyl)-methylene}-6-chloro-2-indolinone], the IC50 turned out to be 2 nM.

Consider `CN1CCN(CC(=O)N(C)c2ccc(N/C(=C3\C(=O)Nc4cc(Cl)ccc43)c3ccc4c(c3)OCO4)cc2)CC1` [(az), 3-(Z)-{1-(4-[N-methyl-N-(4-methylpiperazin-1-yl-methylcarbonyl)-amino]-phenyl-amino)-1-(3,4-methylenedioxyphenyl)-methylene}-6-chloro-2-indolinone], for which the IC50 is 6 nM.

`CN(C)CCN(c1ccc(N/C(=C2\C(=O)Nc3cc(Cl)ccc32)c2ccc3c(c2)OCCO3)cc1)S(C)(=O)=O` [(h), 3-(Z)-{1-(4-[N-methanesulphonyl-N-(2-dimethylaminoethyl)-amino]-phenylamino)-1-(3,4-ethylenedioxyphenyl)-methylene}-6-chloro-2-indolinone]: the IC50 came to 3 nM.

Consider `CCC(=O)N(CCN(C)C)c1ccc(N/C(=C2\C(=O)Nc3cc(F)ccc32)c2ccc3c(c2)OCCO3)cc1` [(aa), 3-(Z)-{1-(4-[N-propionyl-N-(2-dimethylaminoethyl)-amino]-phenylamino)-1-(3,4-ethylenedioxyphenyl)-methylene}-6-fluoro-2-indolinone], for which the IC50 is 0.6 nM.

On to `CCN(CC)CCS(=O)(=O)c1ccc(N/C(=C2\C(=O)Nc3cc(Cl)ccc32)c2ccc3c(c2)OCO3)cc1` [(ap), 3-(Z)-{1-(4-[2-(diethylamino)ethyl-sulphonyl]-phenylamino)-1-(3,4-methylenedioxyphenyl)-methylene}-6-chloro-2-indolinone], for which the IC50 was determined as 120 nM.

Regarding `CN(C)CCN(c1ccc(N/C(=C2\C(=O)Nc3cc(F)ccc32)c2ccc3c(c2)OCCO3)cc1)S(C)(=O)=O` [(ab), 3-(Z)-{1-(4-[N-methanesulphonyl-N-(2-dimethylaminoethyl)-amino]-phenylamino)-1-(3,4-ethylenedioxyphenyl)-methylene}-6-fluoro-2-indolinone], the IC50 was found to be 1 nM.

`Cn1ccnc1-c1ccc(N/C(=C2\C(=O)Nc3cc(Cl)ccc32)c2ccc3nccnc3c2)cc1` [(ar), 3-(Z)-{1-(4-[1-methylimidazol-2-yl]-phenylamino)-1-(quinoxalin-6-yl)-methylene}-6-chloro-2-indolinone]: the IC50 was 71 nM.

Regarding `CN(C)Cc1ccc(N/C(=C2\C(=O)Nc3ccccc32)c2ccc3c(c2)nnn3C)cc1` [(av), 3-(Z)-{1-[4-(dimethylaminomethyl)-phenylamino]-1-(1-methyl-benzotriazol-5-yl)-methylene}-2-indolinone], the IC50 was determined as 94 nM.

Turning to `Cc1cc(C)n(-c2ccc(N/C(=C3\C(=O)Nc4cc(F)ccc43)c3ccc4c(c3)ncn4C)cc2)n1` [(at), 3-(Z)-{1-[4-(3,5-dimethyl-pyrazol-1-yl)-phenylamino]-1-(1-methyl-benzimidazol-5-yl)-methylene}-6-fluoro-2-indolinone], the IC50 stood at 30 nM.

Take `CN1CCN(CC(=O)N(C)c2ccc(N/C(=C3\C(=O)Nc4cc(Cl)ccc43)c3ccc4nccnc4c3)cc2)CC1` [(b), 3-(Z)-{1-(4-[N-methyl-N-(4-methylpiperazin-1-yl-methylcarbonyl)-amino]-phenyl-amino)-1-(quinoxalin-6-yl)-methylene}-6-chloro-2-indolinone]: the IC50 was 4 nM.

Consider `CN(C)CCN(C(=O)c1cccnc1)c1ccc(N/C(=C2\C(=O)Nc3cc(Cl)ccc32)c2ccc3c(c2)OCO3)cc1` [(ao), 3-(Z)-{1-(4-[N-(3-pyridylcarbonyl)-N-(2-dimethylaminoethyl)-amino]-phenyl-amino)-1-(3,4-methylenedioxyphenyl)-methylene}-6-chloro-2-indolinone], for which the IC50 came out at 6 nM.
